We go through eight molecules from patent publication US20060079453A1, “Hla binding peptides and their uses” (priority 2002, published 2006).

Among the targets are HLA-DR DRB1*1101 (DR11) (Homo sapiens, UniProt P01903+P01911, A100R/A169T/A87E/I96F/K41T/L162R/M171V/P40S/Q125H/Q178H/Q39Y/Q99D/R42S/S66Y/T262R/V115G/W38E); HLA-DR DRB3*0101 (DR52) (Homo sapiens, UniProt P01903+P79483); HLA-DR DRB1*0401 (DR4) (Homo sapiens, UniProt P01903+P01911, A100K/A169T/F76Y/I96L/K127E/L162R/M171V/N62H/P40V/Q125Y/R42H/S133A/S149N/S66Y/V115G/V209L/W38E); HLA-DR DRB1*1501 (DR15) (Homo sapiens, UniProt P01903+P01911); HLA-DR DRB1*0405 (DR4) (Homo sapiens, UniProt P01903+P01911, A100R/A169T/D86S/F76Y/I96L/K127E/L162R/M171V/N62H/P40V/Q125Y/R42H/S133A/S149N/S66Y/V115G/V209L/W38E); HLA-DR DRB1*0301 (DR3) (Homo sapiens, UniProt P01903+P01911, A100K/A102G/A103R/A169T/F55Y/I96L/K41T/L162R/M171V/P40S/Q125H/Q178H/Q39Y/R42S/S66N/T106N/T262R/W38E/Y61H); HLA-DR DRB1*0101 (DR1) (Homo sapiens, UniProt P01903+P01911, A100R/D57E/F55L/F60I/F76Y/I96L/L162R/M171V/P40L/Q125E/R42F/V115G/Y59C); HLA-DR DRB1*1302 (DR13) (Homo sapiens, UniProt P01903+P01911, A100E/A169T/K41T/L162R/M171V/P40S/Q125H/Q178H/Q39Y/Q99D/R42S/S66N/T262R/V115G/W38E/Y61H); HLA-DR DRB1*0701 (DR7) (Homo sapiens, UniProt P01903+P01911, A100R/A102G/A103Q/D57E/D86V/E43K/F76Y/K127E/L162R/M171V/P40G/Q125H/Q99D/R33Q/R42Y/R54Q/S133A/S66F/T210M/V115G/Y107V/Y59L/Y89S); HLA-DR DRB1*0802 (DR8) (Homo sapiens, UniProt P01903+P01911, A100R/A103L/A169T/F76Y/H45Y/I96F/K41T/L162R/M171V/P40S/Q125H/Q178H/Q39Y/Q99D/R218S/R42G/S66Y/V115G/W38E); HLA-DR DRB4*0101 (DR53) (Homo sapiens, UniProt P01903+P13762, G164S); HLA-DR DRB5*0101 (DR51) (Homo sapiens, UniProt P01903+Q30154).

What all share (test): biochemical
Holding throughout (format): binding

Another experiment concerns the target HLA-DR DRB1*0901 (DR9) (Homo sapiens, UniProt P01903+P01911, A100R/A103E/D57H/D86V/F55Y/F60I/F76Y/I96F/K127E/L162R/M171V/P40D/Q125H/Q99R/R33Q/R42F/S133A/S66N/T210M/V115G/W38K/Y107V/Y59G/Y89S). Particulars: DRB1 *0901.

Read-outs that look alike come from different tables or passages of the source. No end group written: not given here. Some results are limits rather than exact numbers.

HLA-DR DRB1*1302 (DR13), sequence (P01903 26-254 limits assumed, other chains not shown): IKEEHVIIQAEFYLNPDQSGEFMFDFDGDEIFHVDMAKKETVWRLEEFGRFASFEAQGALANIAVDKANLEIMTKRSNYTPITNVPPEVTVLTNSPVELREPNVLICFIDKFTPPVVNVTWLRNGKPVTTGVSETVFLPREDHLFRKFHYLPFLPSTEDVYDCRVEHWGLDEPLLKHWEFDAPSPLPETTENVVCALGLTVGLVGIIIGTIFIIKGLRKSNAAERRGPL
HLA-DR DRB1*1101 (DR11), sequence (P01903 26-254 limits assumed, other chains not shown): as above
HLA-DR DRB1*0301 (DR3), sequence (P01903 26-254 limits assumed, other chains not shown): as above

On to `CC[C@H](C)[C@H](NC(=O)CNC(=O)[C@H](CC(C)C)NC(=O)[C@H](CC(C)C)NC(=O)[C@H](CCCNC(=N)N)NC(=O)[C@H](CO)NC(=O)[C@@H](NC(=O)[C@H](Cc1ccc(O)cc1)NC(=O)[C@@H]1CCCN1C(=O)[C@H](CO)NC(=O)CNC(=O)[C@@H](NC(=O)CN)C(C)C)C(C)C)C(=O)N[C@@H](CS)C(=O)N[C@@H](CC(C)C)C(=O)O`, for which the half-inhibitory concentration (IC50) on HLA-DR DRB1*1101 (DR11) (DRB1 *1101) was 0.696 µM; against HLA-DR DRB3*0101 (DR52) it was 149 µM; against HLA-DR DRB1*0401 (DR4) (DRB1 *0401), 1.57 µM; against HLA-DR DRB1*1501 (DR15) (DRBI *1501), 0.046 µM; at HLA-DR DRB1*0405 (DR4) (DRB1 *0405), 4.16 µM; on HLA-DR DRB1*0301 (DR3), 168 µM. For the same molecule, the 50% inhibitory concentration (IC50) stood at 0.019 µM on HLA-DR DRB1*0101 (DR1) (DRB1 *0101), 0.955 µM at HLA-DR DRB1*1302 (DR13) (DRBI *1302), 2.61 µM on HLA-DR DRB1*0901 (DR9) and 0.19 µM against HLA-DR DRB1*0701 (DR7) (DRB1 *0701).

In the case of RSSNCQSQKLLWQLN, the 50% inhibitory concentration (IC50) at HLA-DR DRB1*1101 (DR11) (DRB1 *1101) is more than 60.6 µM; on HLA-DR DRB3*0101 (DR52), 68.8 µM; at HLA-DR DRB1*0401 (DR4) (DRB1 *0401), 0.595 µM; on HLA-DR DRB1*1501 (DR15) (DRBI *1501) it was 2.96 µM; on HLA-DR DRB1*0405 (DR4) (DRB1 *0405), 4.01 µM; against HLA-DR DRB1*0301 (DR3), 57.9 µM. Further, the concentration for half-maximal inhibition (IC50) was 2.05 µM at HLA-DR DRB1*0101 (DR1) (DRB1 *0101), 1.96 µM against HLA-DR DRB1*1302 (DR13) (DRBI *1302), 6.94 µM on HLA-DR DRB1*0802 (DR8) and 0.027 µM against HLA-DR DRB4*0101 (DR53) (DRB4 *0101).

Regarding VGGVYLAPRRGPRLGV, the half-inhibitory concentration (IC50) at HLA-DR DRB1*1101 (DR11) was 0.035 µM; against HLA-DR DRB3*0101 (DR52), more than 66.5 µM; against HLA-DR DRB1*0401 (DR4) it was 33.7 µM; on HLA-DR DRB1*1501 (DR15), 0.055 µM; at HLA-DR DRB1*0405 (DR4), more than 12.2 µM; against HLA-DR DRB1*0301 (DR3), 203 µM. Moreover, the IC50 against HLA-DR DRB5*0101 (DR51) is 0.076 µM; at HLA-DR DRB1*0101 (DR1), 0.746 µM; on HLA-DR DRB1*1302 (DR13), more than 15.4 µM; at HLA-DR DRB4*0101 (DR53), more than 42.1 µM; at HLA-DR DRB1*0701 (DR7) it was 0.878 µM.

Regarding HYLKAKEDSHTAWTI, the half-inhibitory concentration (IC50) is more than 60.6 µM at HLA-DR DRB1*1101 (DR11) (DRB1 *1101); 35.8 µM against HLA-DR DRB3*0101 (DR52); 0.553 µM on HLA-DR DRB1*0401 (DR4) (DRB1 *0401); 0.529 µM at HLA-DR DRB1*1501 (DR15) (DRBI *1501); 15.1 µM against HLA-DR DRB1*0405 (DR4) (DRB1 *0405); 70.2 µM against HLA-DR DRB1*0301 (DR3). In addition, the concentration for half-maximal inhibition (IC50) was determined as 19.6 µM against HLA-DR DRB5*0101 (DR51) (DRB5 *0101); 0.232 µM on HLA-DR DRB1*0101 (DR1) (DRB1 *0101); 2.26 µM at HLA-DR DRB1*1302 (DR13) (DRBI *1302); 11.8 µM at HLA-DR DRB4*0101 (DR53) (DRB4 *0101); 10.1 µM against HLA-DR DRB1*0901 (DR9); 0.801 µM against HLA-DR DRB1*0701 (DR7) (DRB1 *0701).

As to RPIVNMDYVVGARTFRREKR, the IC50 on HLA-DR DRB3*0101 (DR52) came to 3.32 µM; against HLA-DR DRB1*0401 (DR4) (DRB1 *0401) it was 0.0031 µM; on HLA-DR DRB1*1501 (DR15) (DRBI *1501), 0.043 µM; at HLA-DR DRB1*0405 (DR4) (DRB1 *0405) it was 0.812 µM; against HLA-DR DRB1*0301 (DR3) it was 0.022 µM; at HLA-DR DRB5*0101 (DR51) (DRB5 *0101), 0.0066 µM. For the same molecule, the IC50 was 0.029 µM on HLA-DR DRB1*0101 (DR1) (DRB1 *0101); 0.073 µM on HLA-DR DRB1*1302 (DR13) (DRBI *1302); 0.748 µM against HLA-DR DRB1*0802 (DR8); 0.16 µM against HLA-DR DRB4*0101 (DR53) (DRB4 *0101); 0.346 µM on HLA-DR DRB1*0701 (DR7) (DRB1 *0701).

As for LGFLQRSSNCQSQKL, the IC50 on HLA-DR DRB1*1101 (DR11) (DRB1 *1101) was 0.604 µM; at HLA-DR DRB3*0101 (DR52), more than 1750 µM; on HLA-DR DRB1*0401 (DR4) (DRB1 *0401), 0.0081 µM; on HLA-DR DRB1*0405 (DR4) (DRB1 *0405) it was 0.228 µM; against HLA-DR DRB1*0301 (DR3) it was 4.89 µM; against HLA-DR DRB5*0101 (DR51) (DRB5 *0101), 0.508 µM. The IC50 was 0.131 µM against HLA-DR DRB1*1302 (DR13) (DRBI *1302), 0.405 µM on HLA-DR DRB1*0802 (DR8), 0.124 µM against HLA-DR DRB4*0101 (DR53) (DRB4 *0101) and 0.305 µM on HLA-DR DRB1*0701 (DR7) (DRB1 *0701).

Consider APPRLITDSRVLERY, for which the IC50 stood at 2.75 µM on HLA-DR DRB1*1101 (DR11) (DRB1 *1101); 0.71 µM at HLA-DR DRB3*0101 (DR52); 6.68 µM against HLA-DR DRB1*0401 (DR4) (DRB1 *0401); 7.77 µM at HLA-DR DRB1*0405 (DR4) (DRB1 *0405); 0.015 µM against HLA-DR DRB1*0301 (DR3); 0.698 µM against HLA-DR DRB5*0101 (DR51) (DRB5 *0101). Moreover, the IC50 against HLA-DR DRB1*0101 (DR1) (DRB1 *0101) is 10.1 µM; against HLA-DR DRB1*1302 (DR13) (DRBI *1302), 0.092 µM; at HLA-DR DRB4*0101 (DR53) (DRB4 *0101), 2.26 µM; on HLA-DR DRB1*0901 (DR9), 8.39 µM; against HLA-DR DRB1*0701 (DR7) (DRB1 *0701), 0.629 µM.

On to HIEFTPTRTDTYACRV, for which the IC50 against HLA-DR DRB1*1101 (DR11) (DRB1 *1101) was not below 200 µM; on HLA-DR DRB3*0101 (DR52) it was more than 7.14 µM; against HLA-DR DRB1*0401 (DR4) (DRB1 *0401), 30 µM; against HLA-DR DRB1*0405 (DR4) (DRB1 *0405), 10 µM; on HLA-DR DRB5*0101 (DR51) (DRB5 *0101), not below 200 µM; against HLA-DR DRB1*0802 (DR8), more than 12.5 µM.

Usually IC50 stands for the concentration that gives 50% inhibition.
